Results taken from ChEMBL document CHEMBL5360555, “Structure-based discovery of novel α-aminoketone derivatives as dual p53-MDM2/MDMX inhibitors for the treatment of cancer” (Eur J Med Chem, 2023).
pIC50, pKi: −log10 of the molar value.

Columns and labels:
[1] = target: E3 ubiquitin-protein ligase Mdm2 (Homo sapiens, UniProt Q00987); test: Binding affinity to MDM2 (1 to 118 residues) (unknown origin) assessed as inhibition constant incubated for 1 hr measured by fluorescence polarization assay
[2] = tested on: HCT-116; test: Antiproliferative activity against human HCT-116 cells overexpressing MDM2 assessed as cell growth inhibition incubated for 72 hrs by CCK-8 assay; type: functional, cell-based; conditions: HCT-116, 72 h
[3] = tested on: SH-SY5Y; test: Antiproliferative activity against human SH-SY5Y cells overexpressing MDMX assessed as cell growth inhibition incubated for 72 hrs by CCK-8 assay; type: functional, cell-based
[4] = Antiproliferative activity against human HCT116-p53-null cells overexpressing MDMX assessed as cell growth inhibition incubated for 72 hrs by CCK-8 assay; type: functional, cell-based
[5] = tested on: SJSA-1; test: Antiproliferative activity against human SJSA-1 cells overexpressing MDM2 assessed as cell growth inhibition incubated for 72 hrs by CCK-8 assay; type: functional, cell-based; conditions: SJSA-1, 72 h
[6] = tested on: HCT-116; test: Antiproliferative activity against human HCT-116 cells overexpressing MDM2 assessed as cell growth inhibition incubated at 10 uM for 72 hrs by CCK-8 assay relative to control; type: functional
[7] = tested on: SH-SY5Y; test: Antiproliferative activity against human SH-SY5Y cells overexpressing MDMX assessed as cell growth inhibition incubated at 10 uM for 72 hrs by CCK-8 assay relative to control; type: functional

Chain of E3 ubiquitin-protein ligase Mdm2 (Q00987 whole entry, the tested form may be a part): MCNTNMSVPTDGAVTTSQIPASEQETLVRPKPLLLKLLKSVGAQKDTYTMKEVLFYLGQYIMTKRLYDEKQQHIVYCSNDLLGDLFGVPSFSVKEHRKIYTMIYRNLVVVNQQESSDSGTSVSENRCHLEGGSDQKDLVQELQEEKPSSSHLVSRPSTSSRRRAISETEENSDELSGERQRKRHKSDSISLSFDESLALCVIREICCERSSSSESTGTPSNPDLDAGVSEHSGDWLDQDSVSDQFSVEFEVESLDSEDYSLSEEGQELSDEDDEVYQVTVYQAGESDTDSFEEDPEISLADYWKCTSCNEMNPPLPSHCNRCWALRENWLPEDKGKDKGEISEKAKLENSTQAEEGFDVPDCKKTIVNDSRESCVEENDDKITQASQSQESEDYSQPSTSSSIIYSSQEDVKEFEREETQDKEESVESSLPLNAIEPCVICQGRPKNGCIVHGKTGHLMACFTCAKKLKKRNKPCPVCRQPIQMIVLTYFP

Row | Structure (SMILES) | pKi [1] | pIC50 [2] | pIC50 [3] | pIC50 [4] | pIC50 [5] | inhibition at 10 µM [6] [%] | inhibition at 10 µM [7] [%]
1 | O=C(c1ccc(Cl)cc1)C(Nc1ccc(Cl)c(Cl)c1)c1ccc(Cl)c(Cl)c1 (stereo unspecified) | 5.37 | 4.91 | 4.84 | – | – | – | –
2 | O=C(O)CCCCC(=O)N(c1ccc(Cl)cc1)C(C(=O)c1ccc(Cl)cc1)c1ccc(F)cc1Cl (stereo unspecified) | 6.15 | 4.98 | 5.02 | 4.58 | 4.94 | – | –
3 | O=C(c1ccc(Cl)cc1)C(Cc1ccc(Cl)cc1)C(=O)c1cc(F)ccc1F (stereo unspecified) | 4.63 | – | – | – | – | 5.64 | 10.9
4 | O=C(c1ccc(Cl)cc1)C(Nc1ccccc1)c1ccccc1 (stereo unspecified) | 4.74 | < 4.40 | < 4.40 | – | – | – | –
5 | COc1ccc(C(=O)C(Nc2ccc(C)cc2)c2ccc(OC)cc2)cc1 (stereo unspecified) | 4.78 | 4.48 | 4.48 | – | – | – | –
6 | O=C(c1ccc(Cl)cc1)C(Nc1ccc(Cl)cc1)c1cc(F)cc(F)c1 (stereo unspecified) | 4.61 | < 4.40 | < 4.40 | – | – | – | –
7 | COC(=O)CCC(=O)N(c1ccc(Cl)cc1)C(C(=O)c1ccc(Cl)cc1)c1ccc(F)cc1Cl (stereo unspecified) | 5.86 | 4.71 | 4.68 | 4.49 | 4.72 | – | –
8 | Cc1cc(Cl)cc(NC(C(=O)c2ccc(Cl)cc2)c2ccc(F)c(Cl)c2)c1 (stereo unspecified) | 4.76 | 4.78 | 4.76 | – | – | – | –
9 | O=C(c1ccc(Cl)cc1)C(Cc1ccc(-c2ccccc2)cc1)C(=O)c1cc(F)ccc1F (stereo unspecified) | 4.61 | – | – | – | – | 29.9 | 13.2
10 | COc1ccc(NC(C(=O)c2ccc(Cl)cc2)c2ccc(F)cc2Cl)cc1 (stereo unspecified) | 4.56 | 4.52 | 4.53 | – | – | – | –
11 | O=C(c1ccc(Cl)cc1)C(Cc1ccc(Cl)nc1)C(=O)c1cc(F)ccc1F (stereo unspecified) | 4.81 | – | – | – | – | 39.4 | 20.1
12 | O=C(c1ccc(Br)cc1)C(Nc1ccc(Cl)cc1)c1ccc(Cl)cc1 (stereo unspecified) | 4.88 | 4.66 | 4.69 | – | – | – | –
13 | O=C(c1ccc(Cl)cc1)C(Nc1cccc(Cl)c1F)c1ccc(Cl)c(Cl)c1 (stereo unspecified) | 5.67 | 4.96 | 4.96 | – | – | – | –
14 | O=C(c1ccc(Cl)cc1)C(Cc1cccc(C(F)(F)F)c1)C(=O)c1cc(F)ccc1F (stereo unspecified) | 4.87 | – | – | – | – | 48.4 | 42.9
15 | O=C(c1ccc(Cl)cc1)C(Cc1ccsc1)C(=O)c1cc(F)ccc1F (stereo unspecified) | 4.85 | – | – | – | – | 31.8 | 15.3
16 | O=C(c1ccc(Cl)cc1)C(Nc1cc(F)cc(F)c1)c1ccc(Cl)c(Cl)c1 (stereo unspecified) | 5.16 | 4.87 | 4.88 | – | – | – | –
17 | O=C(c1ccc(Cl)cc1)C(Cc1cccc(F)c1)C(=O)c1cc(F)ccc1F (stereo unspecified) | 4.89 | – | – | – | – | 14.3 | 18.9
18 | Cc1cccc(CC(C(=O)c2ccc(Cl)cc2)C(=O)c2cc(F)ccc2F)c1 (stereo unspecified) | 4.65 | – | – | – | – | 33.7 | 24.6
19 | O=C(c1ccc(Cl)cc1)C(Nc1ccc(Cl)cc1)c1cc(F)ccc1F (stereo unspecified) | 4.83 | 4.67 | 4.66 | – | – | – | –
20 | COC(=O)/C=C/C(=O)N(c1ccc(Cl)cc1)C(C(=O)c1ccc(Cl)cc1)c1ccc(F)cc1Cl (stereo unspecified) | 5.84 | 4.72 | 4.71 | 4.43 | 4.76 | – | –

Row | Structure (SMILES) | pKi [1] | pIC50 [2] | pIC50 [3] | pIC50 [4] | pIC50 [5] | inhibition at 10 µM [6] [%] | inhibition at 10 µM [7] [%]
21 | COC(=O)CCCCC(=O)N(c1ccc(Cl)cc1)C(C(=O)c1ccc(Cl)cc1)c1ccc(F)cc1Cl (stereo unspecified) | 6.09 | 4.85 | 4.86 | 4.43 | 4.91 | – | –
22 | O=C(c1ccc(Cl)cc1)C(Nc1cccc(Cl)c1)c1ccc(F)cc1Cl (stereo unspecified) | 5.16 | 4.78 | 4.85 | – | – | – | –
23 | O=C(c1ccc(Cl)cc1)C(Cc1cc(Cl)cc(Cl)c1)C(=O)c1cc(F)ccc1F (stereo unspecified) | 5.11 | – | – | – | – | 33.5 | 9.49
24 | O=C(c1ccc(Cl)cc1)C(Nc1cc(F)cc(F)c1)c1ccc(Cl)cc1F (stereo unspecified) | 5.61 | 4.88 | 4.87 | – | – | – | –
25 | O=C(c1ccc(Cl)cc1)C(Cc1cc2ccccc2cn1)C(=O)c1cc(F)ccc1F (stereo unspecified) | 4.66 | – | – | – | – | 36.7 | 9.44
26 | O=C(c1ccc(Cl)cc1)C(Nc1ccc(F)cc1)c1ccc(F)cc1Cl (stereo unspecified) | 5.13 | 4.81 | 4.76 | – | – | – | –
27 | O=C(c1ccccc1)C(Cc1ccccc1)C(=O)c1ccccc1 | 4.59 | – | – | – | – | 11.2 | 9.88
28 | COC(=O)CCCC(=O)N(c1ccc(Cl)cc1)C(C(=O)c1ccc(Cl)cc1)c1ccc(F)cc1Cl (stereo unspecified) | 5.94 | 4.79 | 4.85 | 4.55 | 4.83 | – | –
29 | COc1ccc(C(=O)C(Nc2ccccc2)c2ccccc2)cc1 (stereo unspecified) | 4.59 | < 4.40 | < 4.40 | – | – | – | –
30 | O=C(c1ccc(Cl)cc1)C(Cc1ccccc1Cl)C(=O)c1cc(F)ccc1F (stereo unspecified) | 4.82 | – | – | – | – | 25.4 | 22.7
31 | O=C(c1ccc(Cl)cc1)C(Nc1ccc(Cl)cc1)c1ccc(F)c(Cl)c1 (stereo unspecified) | 4.62 | 4.53 | 4.67 | – | – | – | –
32 | O=C(c1ccc(F)cc1)C(Nc1ccc(Cl)cc1)c1ccc(Cl)cc1 (stereo unspecified) | 4.91 | 4.73 | 4.82 | – | – | – | –
33 | O=C(c1ccc(Cl)cc1)C(Nc1ccc(Cl)cc1)c1ccc(F)cc1Cl (stereo unspecified) | 6.04 | 4.93 | 5.01 | – | – | – | –
34 | COc1cccc(CC(C(=O)c2ccc(Cl)cc2)C(=O)c2cc(F)ccc2F)c1 (stereo unspecified) | 4.84 | – | – | – | – | 26.3 | 18.3
35 | O=C(c1ccc(Cl)cc1)C(Cc1cccc(Cl)c1)C(=O)c1cc(F)ccc1F (stereo unspecified) | 5.22 | – | – | – | – | 51.8 | 48.1
36 | Cc1cc(Cl)cc(NC(C(=O)c2ccc(F)cc2)c2ccc(F)c(Cl)c2)c1 (stereo unspecified) | 4.71 | 4.73 | 4.74 | – | – | – | –
37 | O=C(O)CCC(=O)N(c1ccc(Cl)cc1)C(C(=O)c1ccc(Cl)cc1)c1ccc(F)cc1Cl (stereo unspecified) | 5.97 | 4.85 | 5.09 | 4.44 | 4.92 | – | –
38 | O=C(O)CCCC(=O)N(c1ccc(Cl)cc1)C(C(=O)c1ccc(Cl)cc1)c1ccc(F)cc1Cl (stereo unspecified) | 6.11 | 4.99 | 4.94 | 4.53 | 5.01 | – | –
39 | O=C(O)/C=C/C(=O)N(c1ccc(Cl)cc1)C(C(=O)c1ccc(Cl)cc1)c1ccc(F)cc1Cl (stereo unspecified) | 5.96 | 4.81 | 4.82 | 4.50 | 4.81 | – | –
40 | O=C(c1ccccc1)C(Nc1ccccc1)c1ccccc1 (stereo unspecified) | 4.42 | < 4.40 | < 4.40 | – | – | – | –
